From patent US20100041089A1, “IMPROVED METHOD FOR DETECTING CHEMICAL […]” (priority 2006, published 2010)

Tested on: yeast genes (expressed mRNA)
Experiment: DNA chip measurement of expressed mRNA of yeast genes after culture with a toxic chemical substance
Format: cell-based, Saccharomyces cerevisiae S288C
Procedure: Yeast (Saccharomyces cerevisiae S288C (a SUC2mal mel gap2 CUP1)) were cultured at 25° C. on YPD medium (yeast extract 1%, polypeptone 2%, glucose 2%). One of toxic chemical substances was added to the cell at logarithmic growth phase, and the cell was further cultured for two hours. Cell was cultured without any chemical substance in the same condition, and was used as a control. Concentrations of the chemical substances were defined to inhibit the growth of the yeast but not lead to death.
After the completion of cultivation, the culture was centrifuged to collect the cells. To the cells, sodium acetate buffer (50 mM sodium acetate, 10 mM EDTA, 1% SDS) was added, and the mixture was shaken at 65° C. for five minutes, followed by returning to room temperature, and obtaining the supernatant, which procedure was repeated two times. To the supernatant, ½ amount of a solution of phenol/chloroform (1:1) was added, and the mixture was centrifuged to give a supernatant, an equal amount of chloroform was added, and the mixture was centrifuged to give a supernatant. To the supernatant, an equal amount of isopropanol containing 0.3 M sodium acetate was added, and the mixture was allowed to stand at room temperature for 30 minutes, after which the mixture was centrifuged to give sediment of the whole RNAs. Seventy % ethanol was added to the sediment, and the mixture was again centrifuged to give sediment, which was then dried and dissolved in water. mRNA was isolated from the whole RNAs as followings. In view of the fact that a poly A chain is attached to the 3′ terminus of mRNA, a polynucleotide having a poly T structure which was immobilized on the surface of latex beads was used to trap the mRNA, and then the mRNA was washed and eluted with spine column (Oligotex-dT30<Super>mRNA Purification Kit, Takara). Reverse transcription of the mRNA was conducted with a reverse transcriptase (Super Script II Reverse Transcriptase; catalogue No. 18064-014, GibcoBRL) using fluorescence-labeled nucleotides to give cDNAs that were introduced with Cy3-dUTP or Cy5-dUTP during the reverse transcription.
The labeled cDNAs were dissolved in TE buffer (10 mM Tris-HCl/1 mM EDTA, pH 8.0), and the solution was dropped on the DNA chip containing the whole genes of yeast (DNA Chip Research Inc. Japan) so that the cDNAs were hybridized on the DNA chip at 65° C. for over 12 hours. The fluoresces intensity of the DNA chip was read with a scanner, and the ratio relative to the fluorescence intensity resulting from the absence of chemical substance was estimated as the following, which is shown in Tables 1 to 9.
In the Tables, “Intensity” indicated in the rightmost column is a value of the level of expressed mRNA of each gene in control cells as divided by the average level of the expressions of the whole genes. A gene of which mRNA level is lower in control, and is higher in cases of addition of chemical substance, is especially useful in the detection of toxic substances.
Here, when a ratio of an amount of mRNA expressed in the presence of the chemical substance to an amount of mRNA expressed in the absence of the chemical substance is two or more, then it is considered significant.

`N#Cc1c(Cl)c(Cl)c(Cl)c(C#N)c1Cl` [(9), 2,4,5,6-Tetrachloro-1,3-benzenedicarbonitrile] was tested, and the “The level of expressed mRNA in the presence of chemical substance/The level of expressed mRNA in the absence of chemical substance” value (yeast gene YAL034C, cultured two hours with substance) was 3.0, the “The level of expressed mRNA in the presence of chemical substance/The level of expressed mRNA in the absence of chemical substance” value (yeast gene YAL053W, cultured two hours with substance) was 1.4 and the “The level of expressed mRNA in the presence of chemical substance/The level of expressed mRNA in the absence of chemical substance” value (yeast gene YAR027W, cultured two hours with substance) was 2.3. For the same compound, the “The level of expressed mRNA in the presence of chemical substance/The level of expressed mRNA in the absence of chemical substance” value (yeast gene YAR028W, cultured two hours with substance) was 1.0, the “The level of expressed mRNA in the presence of chemical substance/The level of expressed mRNA in the absence of chemical substance” value (yeast gene YBL048W, cultured two hours with substance) was 7.2 and the “The level of expressed mRNA in the presence of chemical substance/The level of expressed mRNA in the absence of chemical substance” value (yeast gene YBL065W, cultured two hours with substance) was 20.8. The “The level of expressed mRNA in the presence of chemical substance/The level of expressed mRNA in the absence of chemical substance” value (yeast gene YBL075C (stress protein genes)) was 60.3, the “The level of expressed mRNA in the presence of chemical substance/The level of expressed mRNA in the absence of chemical substance” value (yeast gene YBL107C, cultured two hours with substance) was 1.0 and the “The level of expressed mRNA in the presence of chemical substance/The level of expressed mRNA in the absence of chemical substance” value (yeast gene YBR008C (transport facilitation protein gene)) was 54.6. The “The level of expressed mRNA in the presence of chemical substance/The level of expressed mRNA in the absence of chemical substance” value (yeast gene YBR072W (stress protein genes)) was 29.4, the “The level of expressed mRNA in the presence of chemical substance/The level of expressed mRNA in the absence of chemical substance” value (yeast gene YBR096W, cultured two hours with the chemical substance) was 1.2 and the “The level of expressed mRNA in the presence of chemical substance/The level of expressed mRNA in the absence of chemical substance” value (yeast gene YBR256C) was 18.1. The “The level of expressed mRNA in the presence of chemical substance/The level of expressed mRNA in the absence of chemical substance” value (yeast gene YCR082W, cultured two hours with substance) was 4.3, the “The level of expressed mRNA in the presence of chemical substance/The level of expressed mRNA in the absence of chemical substance” value (yeast gene YCR107W, cultured for two hours with substance) was 196.6 and the “The level of expressed mRNA in the presence of chemical substance/The level of expressed mRNA in the absence of chemical substance” value (yeast gene YDL059C, DNA repair protein genes, cultured two hours with substance) was 10.5. For the same compound, the “The level of expressed mRNA in the presence of chemical substance/The level of expressed mRNA in the absence of chemical substance” value (yeast gene YDL072C, cultured two hours with substance) was 1.1, the “The level of expressed mRNA in the presence of chemical substance/The level of expressed mRNA in the absence of chemical substance” value (yeast gene YDL204W, cultured two hours with substance) was 2.3 and the “The level of expressed mRNA in the presence of chemical substance/The level of expressed mRNA in the absence of chemical substance” value (yeast gene YDL218W, cultured two hours with substance) was 72.5. The “The level of expressed mRNA in the presence of chemical substance/The level of expressed mRNA in the absence of chemical substance” value (yeast gene YDL222C, cultured two hours with substance) was 1.9, the “The level of expressed mRNA in the presence of chemical substance/The level of expressed mRNA in the absence of chemical substance” value (yeast gene YDL234C, cultured two hours with substance) was 4.6 and the “The level of expressed mRNA in the presence of chemical substance/The level of expressed mRNA in the absence of chemical substance” value (yeast gene YDL243C, cultured for two hours with substance) was 64.2. The “The level of expressed mRNA in the presence of chemical substance/The level of expressed mRNA in the absence of chemical substance” value (yeast gene YDR018C, cultured two hours with substance) was 2.3, the “The level of expressed mRNA in the presence of chemical substance/The level of expressed mRNA in the absence of chemical substance” value (yeast gene YDR031W, cultured two hours with substance) was 1.1 and the “The level of expressed mRNA in the presence of chemical substance/The level of expressed mRNA in the absence of chemical substance” value (yeast gene YDR070C, cultured two hours with substance) was 13.9. The “The level of expressed mRNA in the presence of chemical substance/The level of expressed mRNA in the absence of chemical substance” value (yeast gene YDR194C, mitochondria-located protein gene, cultured two hours with substance) was 2.8, the “The level of expressed mRNA in the presence of chemical substance/The level of expressed mRNA in the absence of chemical substance” value (yeast gene YDR214W, cultured two hours with substance) was 5.5 and the “The level of expressed mRNA in the presence of chemical substance/The level of expressed mRNA in the absence of chemical substance” value (yeast gene YDR253C) was 14.8. The “The level of expressed mRNA in the presence of chemical substance/The level of expressed mRNA in the absence of chemical substance” value (yeast gene YDR330W, cultured two hours with substance) was 3.9, the “The level of expressed mRNA in the presence of chemical substance/The level of expressed mRNA in the absence of chemical substance” value (yeast gene YDR340W, cultured two hours with substance) was 1.4 and the “The level of expressed mRNA in the presence of chemical substance/The level of expressed mRNA in the absence of chemical substance” value (yeast gene YDR350C, cultured two hours with substance) was 2.8. For the same compound, the “The level of expressed mRNA in the presence of chemical substance/The level of expressed mRNA in the absence of chemical substance” value (yeast gene YDR374C, cultured two hours with substance) was 10.4, the “The level of expressed mRNA in the presence of chemical substance/The level of expressed mRNA in the absence of chemical substance” value (yeast gene YDR391C, cultured two hours with substance) was 1.5 and the “The level of expressed mRNA in the presence of chemical substance/The level of expressed mRNA in the absence of chemical substance” value (yeast gene YDR411C, cultured two hours with substance) was 0.7. The “The level of expressed mRNA in the presence of chemical substance/The level of expressed mRNA in the absence of chemical substance” value (yeast gene YDR486C, cultured two hours with substance) was 2.5, the “The level of expressed mRNA in the presence of chemical substance/The level of expressed mRNA in the absence of chemical substance” value (yeast gene YDR494W, cultured two hours with substance) was 1.2 and the “The level of expressed mRNA in the presence of chemical substance/The level of expressed mRNA in the absence of chemical substance” value (yeast gene YDR511W, cultured two hours with substance) was 2.5. The “The level of expressed mRNA in the presence of chemical substance/The level of expressed mRNA in the absence of chemical substance” value (yeast gene YDR513W) was 4.6, the “The level of expressed mRNA in the presence of chemical substance/The level of expressed mRNA in the absence of chemical substance” value (yeast gene YDR545W, cultured two hours with substance) was 1.8 and the “The level of expressed mRNA in the presence of chemical substance/The level of expressed mRNA in the absence of chemical substance” value (yeast gene YEL001C, cultured two hours with substance) was 2.0. For the same compound, the “The level of expressed mRNA in the presence of chemical substance/The level of expressed mRNA in the absence of chemical substance” value (yeast gene YER004W, cultured two hours with substance) was 4.5, the “The level of expressed mRNA in the presence of chemical substance/The level of expressed mRNA in the absence of chemical substance” value (yeast gene YER035W, cultured two hours with substance) was 1.2 and the “The level of expressed mRNA in the presence of chemical substance/The level of expressed mRNA in the absence of chemical substance” value (yeast gene YER038C, cultured two hours with substance) was 0.7. The “The level of expressed mRNA in the presence of chemical substance/The level of expressed mRNA in the absence of chemical substance” value (yeast gene YER079W, cultured two hours with substance) was 5.3, the “The level of expressed mRNA in the presence of chemical substance/The level of expressed mRNA in the absence of chemical substance” value (yeast gene YER096W, metabolism protein genes) was 7.5 and the “The level of expressed mRNA in the presence of chemical substance/The level of expressed mRNA in the absence of chemical substance” value (yeast gene YER103W (stress protein genes)) was 20.3. For the same compound, the “The level of expressed mRNA in the presence of chemical substance/The level of expressed mRNA in the absence of chemical substance” value (yeast gene YER106W, cultured two hours with substance) was 0.4, the “The level of expressed mRNA in the presence of chemical substance/The level of expressed mRNA in the absence of chemical substance” value (yeast gene YER158C, cultured two hours with substance) was 2.1 and the “The level of expressed mRNA in the presence of chemical substance/The level of expressed mRNA in the absence of chemical substance” value (yeast gene YER163C, cultured two hours with substance) was 5.4. The “The level of expressed mRNA in the presence of chemical substance/The level of expressed mRNA in the absence of chemical substance” value (yeast gene YER175C, cultured two hours with substance) was 1.9 and the “The level of expressed mRNA in the presence of chemical substance/The level of expressed mRNA in the absence of chemical substance” value (yeast gene YFL006W, cultured two hours with substance) was 3.2.
